Reference: PubChem BioAssay (NCI)
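Assay format: 96-well plates, 48-hour exposure. Here, GI50 denotes the concentration required for 50% inhibition of growth. TGI: concentration producing complete growth inhibition.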

Key:
Test in all cases: DTP human tumour cell line panel, 48 h
[1] = system: COLO 205 colon
[2] = system: HCT-15 colon
[3] = system: NCI-H460 lung
[4] = system: RPMI-8226 leukemia
[5] = system: SK-MEL-5 melanoma
[6] = system: SNB-19 CNS
[7] = system: SR leukemia
[8] = system: DU-145 prostate
[9] = system: MDA-MB-231 breast
[10] = system: MDA-MB-435

SMILES	GI50 [1]	TGI [1]	GI50 [2]	TGI [2]	GI50 [3]	TGI [3]	GI50 [4]	TGI [4]	GI50 [5]	TGI [5]	GI50 [6]	TGI [6]	GI50 [7]	TGI [7]	GI50 [8]	GI50 [9]	TGI [9]	GI50 [10]	TGI [10]
CCC[CH2][Sn]([CH2]CCC)([O]C(=O)c1cc(OC)c(OC)cc1OC)[O]C(=O)c1cc(OC)c(OC)cc1OC	1.25 µM	2.6 µM	1.26 µM	2.92 µM	3.08 µM	12.1 µM	0.499 µM	2.96 µM	1.6 µM	3.18 µM	0.626 µM	1.82 µM	–	–	–	–	–	–	–
COc1cc(/C=C/c2ccc(OC(C)=O)cc2)cc(OC)c1OC	–	67.2 µM	–	> 100 µM	–	91.6 µM	–	68.6 µM	–	34.6 µM	–	> 100 µM	–	–	–	–	–	–	–
COc1c(NC(=O)CC(C)=O)[c]([Hg][O]C(C)=O)c(OC)c(Cl)[c]1[Hg][O]C(C)=O	–	–	14 µM	28.8 µM	21.3 µM	49.9 µM	17.5 µM	63.5 µM	12.5 µM	25 µM	18 µM	32.3 µM	3.67 µM	82.1 µM	–	–	–	–	–
CC(=O)C1C(=O)C(=O)N(c2ccccc2N2C(=O)C(=O)C(C(C)=O)C2=O)C1=O (stereo not drawn)	–	> 100 µM	–	> 100 µM	–	> 100 µM	–	> 100 µM	–	> 100 µM	–	> 100 µM	–	> 100 µM	–	–	–	–	–
O=C1c2cc3c(cc2[C@@H]2[C@H]1c1ccc([N+](=O)[O-])cc1C(=O)N2CCCCl)OCO3	< 0.0131 µM	> 100 µM	< 0.0145 µM	> 40.6 µM	< 0.01 µM	13.6 µM	< 0.0171 µM	> 100 µM	< 0.01 µM	< 0.01 µM	< 0.0139 µM	> 100 µM	–	–	< 0.01 µM	< 0.0416 µM	2.38 µM	< 0.01 µM	< 0.0422 µM
N#CCN1CCOCCOCCN(CC#N)CCOCCOCC1	–	> 100 µM	–	> 100 µM	–	> 100 µM	–	> 100 µM	–	> 100 µM	–	> 100 µM	–	> 100 µM	–	–	–	–	–
O=C(CC(=O)Nc1ccccc1O)Nc1ccccc1O	–	33.2 µM	–	21.8 µM	–	66.3 µM	–	44.2 µM	–	22 µM	–	> 100 µM	–	–	–	–	–	–	–
CC1=C(C(=O)CC(=O)C(=O)Nc2ccccc2)Sc2ccccc2N1	–	> 100 µM	–	> 100 µM	–	> 100 µM	–	> 100 µM	–	> 100 µM	–	> 100 µM	–	–	–	–	–	–	–
